The source of these data is PubChem BioAssay AID1996.

What is called kinetic solubility is the concentration staying in solution when a stock, usually in DMSO, is diluted into the medium.

SMILES strings stand for the structures. Converted amounts (≈) assume the structure as drawn.

For this series the following is noted: buffer; pH 7.4; 200.0 µM.
Compound `CCc1nc2ccccc2c(C(=O)OCC(=O)N(C)Cc2ccccc2)c1C` displayed a solubility (kinetic) of 4.9 µg/mL (≈ 13 µM). For the compound `Clc1ccc(-c2cc(CN3CCCCC3)no2)cc1Cl`, the kinetic solubility was 0.4 µg/mL (≈ 1.29 µM). Take `Cc1onc(-c2c(Cl)cccc2Cl)c1/C(N)=N/OC(=O)C1CC1`: the kinetic solubility is 47.1 µg/mL (≈ 133 µM). `O=C(OCC(=O)N1CCOCC1)c1ccc(Br)cc1` gave a solubility (kinetic) of over 49.2 µg/mL.

`O=C(O)c1ccccc1C(=O)Nc1ccccc1NC(=O)c1ccccc1C(=O)O` registered a kinetic solubility of over 60.7 µg/mL. Consider `N#Cc1c(C(F)(F)F)cc(Cc2ccccc2)nc1SCC(=O)NCC(=O)O`, for which the kinetic solubility is over 61.4 µg/mL. As to `CCOC(=O)C1=C(COC(=O)CCc2ccc(CC)cc2)NC(=O)NC1C` (stereo unspecified), the solubility (kinetic) is 40 µg/mL (≈ 107 µM). Next, `O=C(Nc1nccs1)C1CC(=O)N(c2ccccc2)C1` (stereo unspecified): over 43.1 µg/mL; `Cc1ccc(S(=O)(=O)N2CCOCC2)cc1NC(=O)COC(=O)Cc1ccc(Cl)cc1`: 18.7 µg/mL (≈ 40 µM). The value for `COc1ccc(Cl)cc1NC(=S)NCCc1ccc(F)cc1` was 13.7 µg/mL (≈ 40.4 µM). Next, `COCc1c(C(=O)N2CCN(c3ccccc3C)CC2)oc2ccccc12`: 9.2 µg/mL (≈ 25.2 µM). Turning to `COC(=O)C(C)Nc1cccc(Br)c1` (stereo unspecified), the kinetic solubility is 21.8 µg/mL (≈ 84.5 µM). Next, `CCC1CCCCN1C(=O)CSc1nc2ncccc2[nH]1` (stereo unspecified): over 45.7 µg/mL; `O=C(NCc1cccnc1)C12CC3CC(CC(Cl)(C3)C1)C2`: 43.2 µg/mL (≈ 142 µM); `O=C(c1ccc(Cn2cc([N+](=O)[O-])cn2)o1)N1CCCCCC1`: over 47.7 µg/mL. The value for `Clc1ccccc1/C=C/c1nc(-c2cccnc2)no1` was 0.8 µg/mL (≈ 2.82 µM); that for `O=c1cc(C(F)(F)F)[nH]c2ccc(OC(F)(F)F)cc12` was over 44.6 µg/mL; that for `CCOC(=O)c1ccc(NC(=O)c2ccc[n+]([O-])c2)cc1` was over 42.9 µg/mL.

Take `O=C(NCCCn1ccnc1)c1ccccc1Br`: the kinetic solubility was over 46.2 µg/mL. The value for `CN(C)C(=O)CSc1ccc(S(=O)(=O)N2CCCC2)cn1` was over 49.4 µg/mL; that for `C/C(=N\N1CCN(C)CC1)c1ccc(OC(F)F)cc1` was over 42.5 µg/mL. The value for `O=[N+]([O-])c1cc([N+](=O)[O-])c2nonc2c1Nc1ccc(O)cc1` was over 47.6 µg/mL; that for `Cc1ccc(NC(=O)Cc2c(F)cccc2Cl)cc1S(=O)(=O)N1CCOCC1` was 2 µg/mL (≈ 4.68 µM); that for `Cc1cc(C)c(-c2nc3ccccc3s2)[nH]1` was 0.8 µg/mL (≈ 3.5 µM). The value for `CCOc1ccccc1CNCCNCC(C)O.Cl` (stereo unspecified) was over 48.8 µg/mL; that for `N#Cc1ccc(Sc2ccccn2)c([N+](=O)[O-])c1` was 36.5 µg/mL (≈ 142 µM); that for `O=C(CSc1ccccc1F)NC(=O)c1ccccc1Br` was over 55.2 µg/mL. Compound `CN1C(N)=NC(=O)/C1=C\c1ccc(Br)cc1` registered a kinetic solubility of 33.7 µg/mL (≈ 120 µM). Next, `CCC(CC)C(=O)c1c[nH]c(C(=O)NCCOC)c1`: over 40 µg/mL; `OCc1nc2c(ccc3ccccc32)[nH]1`: over 29.7 µg/mL; `CC1CCCCN1C(=O)c1cc(-c2ccc3c(c2)OCO3)on1` (stereo unspecified): 39.9 µg/mL (≈ 127 µM). `O=C(Cn1cccc1C(=O)c1ccccc1)NCc1cccc(Cl)c1` yielded a solubility (kinetic) of under 0.4 µg/mL.

`CN(CC(=O)Nc1cccc(F)c1)C(=O)c1cccc2ccccc12` displayed a kinetic solubility of over 50.5 µg/mL. Consider `CCCCn1c(N)c(N(CC)C(=O)c2cccc(C)c2)c(=O)[nH]c1=O`, for which the solubility (kinetic) was over 51.7 µg/mL.

The compound `CCOC(=O)c1c(-c2ccc(C)cc2)csc1/N=C/N(C)C` yielded a kinetic solubility of over 47.5 µg/mL. The value for `N#Cc1ccc(Oc2ncccn2)cc1` was over 29.6 µg/mL. The compound `Cl.O=C(OCCN1CCOCC1)c1ccccc1` came in with a solubility (kinetic) of 39.6 µg/mL. The value for `C=CCNc1cc(C)oc(=O)c1C(=O)CC` was over 33.2 µg/mL; that for `COC(=O)c1c(C)oc(C)c1S(=O)(=O)NCc1cccs1` was 43.4 µg/mL (≈ 132 µM); that for `Cc1ccc(-c2cc(-c3ccccc3)nc(N)c2C#N)o1` was under 0.2 µg/mL. The value for `CC(=O)C1=C(O)CCCC1=NCc1nc2ccccc2[nH]1` was over 42.5 µg/mL; that for `O=C1NN(c2ccc(F)cc2)C(=O)/C1=C/c1cccs1` was over 43.2 µg/mL; that for `Cn1ccnc1Sc1ccccc1[N+](=O)[O-]` was 24.1 µg/mL (≈ 102 µM). Next, `O=S(=O)(NCc1ccccn1)c1ccc2ccccc2c1`: 36.9 µg/mL (≈ 124 µM); `O=C(NC(=S)N1CCCC(C(F)(F)F)C1)c1ccc(F)cc1` (stereo unspecified): 37.9 µg/mL (≈ 113 µM); `CC(C)(C)C(=O)O/N=C(\N)c1ccc(Oc2cc(Cl)cc(Cl)c2)c([N+](=O)[O-])c1`: under 0.3 µg/mL. Compound `CCCCN1C(=O)CC(Sc2ncccc2C(=O)O)C1=O` (stereo unspecified) had a solubility (kinetic) of 39.9 µg/mL (≈ 129 µM).

`O=c1[nH]oc2cc(Cl)ccc12` returned a solubility (kinetic) of over 25.4 µg/mL. The compound `O=C(NC(=S)Nc1cccc2ncccc12)c1cccs1` yielded a solubility (kinetic) of 1.7 µg/mL (≈ 5.42 µM). As for `COc1ccc2oc(=O)cc(CN3CCOCC3)c2c1`, the solubility (kinetic) was 39.5 µg/mL (≈ 143 µM).

In turn, `Cc1oc(-c2ccc(Cl)cc2)cc1C(=O)NC1CCN(Cc2ccccc2)CC1` yielded a kinetic solubility of 1 µg/mL (≈ 2.45 µM).
